In ChEMBL document CHEMBL1135863, “Antitumor agents. Part 215: antitubulin effects of cytotoxic B-ring modified allocolchicinoids” (Bioorg Med Chem Lett, 2002):

Assays:
[1] = tested on: 1A9; assay: Cytotoxicity against ovarian cancer cell line (1A-9) of humans was determined; type: functional, cell-based; settings: Homo sapiens
[2] = tested on: A9; assay: Cytotoxicity against Beta- tubulin mutant expressing […] cell line of humans was tested; type: functional, cell-based; settings: Homo sapiens
[3] = tested on: KB; assay: The compound was tested for its cytotoxic concentration required to inhibit the replication of human tumor nasopharynx (KB) cell lines; type: functional, cell-based
[4] = tested on: KB; assay: The compound was tested for its cytotoxic concentration required to inhibit the replication of human tumor nasopharynx (KB-VIN) cell lines which is drug resistant; type: functional, cell-based
[5] = tested on: A9; assay: Percentage inhibition at higher concentration (100 nM) against Beta- tubulin mutant expressing […] cell line; type: functional, Homo sapiens

| SMILES | IC50 [1] [nM] | IC50 [2] [nM] | IC50 [3] [nM] | IC50 [4] [nM] | inhibition at 0.1 µM [5] [%] |
| --- | --- | --- | --- | --- | --- |
| COc1ccc2c(c1)[C@@H](NC(=O)CCl)CCc1cc(OC)c(OC)c(OC)c1-2 | 2.7 | 13.8 | 12 | 9.1 |  |
| COc1cc2c(c(OC)c1OC)-c1ccc(OC)c(=O)cc1[C@@H](NC(C)=O)CC2 [COLCHICINE] | 11.9 | 13.8 | 11.9 | > 100 |  |
| COc1ccc2c(c1)[C@@H]1O[C@@H]1Cc1cc(OC)c(OC)c(OC)c1-2 | 82 | > 100 | 62 | 62 | 17 |
| COc1ccc2c(c1)C=CCc1cc(OC)c(OC)c(OC)c1-2 | 60 | 78 | 60 | 68 |  |
